Take `O=C(O)c1ccc(NC(=O)c2ccccc2)cc1`: the melting point lay in the range of 297 to 299 °C.

On to `N#Cc1cc([N+](=O)[O-])cnc1O`, for which the melting point was in the range of 259 to 261 °C.

Consider `CS(=O)(=O)Nc1ccc(N)cc1`, for which the melting point was 114 to 116 °C.

With `CN(C)C(=O)Sc1cnc2c(c1)c(=O)n(C)c(=O)n2C`, the melting point was 170 to 172 °C.

For `CC(NC(=O)c1ccco1)C(=O)O` (stereo not drawn), the melting point is 100 to 102 °C.

For the molecule `CC1CCCCN1S(=O)(=O)c1cccc(C(=O)O)c1` (stereo not drawn), the melting point is 149 to 151 °C.

`O=C(O)c1ccc(-c2nc(C3CC3)n[nH]2)cc1` had a melting point of 237 to 239 °C.

In turn, `N#Cc1cnn(-c2ccc(Br)cc2)c1N` returned a melting point of 177 to 179 °C.

`NNC(=O)c1cc(-c2ccco2)nc2ccccc12` had a melting point of 219 to 221 °C.

The molecule `CSc1nsc(N)n1` yielded a melting point of 146 to 148 °C.

`CCOC(=O)COc1ccccc1C(=O)O` yielded a melting point of 100 to 102 °C.

`Cc1ccc2c(C)cc(NN)nc2c1C` showed a melting point of 191 to 193 °C.

On to `COc1cccc2[nH]cc(CCN)c12`, for which the melting point lay in the range of 119 to 121 °C.

Regarding `NC(=O)c1ccc(Br)c(F)c1`, the melting point was in the range of 167 to 169 °C.

Take `CCc1nc(C=O)c2ccccn12`: the melting point lay within 103 to 105 °C.

Take `CNC(=O)c1cccc(C#N)c1`: the melting point was 140 to 142 °C.

In the case of `Cc1cccc(C(=O)NC(CCS(C)(=O)=O)C(=O)O)c1` (stereo not drawn), the melting point is 235 to 239 °C.

In turn, `O=C(O)CCNC(=O)C1CCCCC1` came in with a melting point of 125 to 127 °C.

The molecule `C=CCOc1ccccc1C(=O)O` showed a melting point of 58 to 60 °C.

The molecule `N#Cc1ccc(OCC2CO2)c([N+](=O)[O-])c1` (stereo not drawn) returned a melting point of 85 to 87 °C.

On to `NS(=O)(=O)c1ccc(C(F)(F)F)cn1`, for which the melting point lay in the range of 174 to 176 °C.

Molecule `C=CC(=O)NCC1CCCCC1` had a melting point of 47 to 49 °C.

In the case of `O=C(O)c1ccnc(Br)c1[N+](=O)[O-]`, the melting point lay within 220 to 222 °C.

In turn, `O=C(O)c1ccn(-c2ccc(Cl)cc2Cl)n1` displayed a melting point of 179 to 181 °C.

For the molecule `Nc1ccc(F)c(NC(=O)Cn2cncn2)c1`, the melting point was 194 to 196 °C.

As to `C#CCNC(=O)Nc1ccc(C)cc1`, the melting point lay in the range of 174 to 176 °C.

For `CC(=O)Nc1cccc(C(C)N)c1` (stereo not drawn), the melting point was in the range of 59 to 61 °C.

Take `O=C(CCl)Nc1ccc(N2CCCC2=O)cc1`: the melting point was in the range of 258 to 260 °C.

In turn, `NNC(=O)Nc1ccc2c(c1)OCO2` registered a melting point of 164 to 166 °C.

On to `CCNc1ccc(C)nn1`, for which the melting point fell in the range of 99 to 101 °C.

For `CCCC(=O)Nc1c(Cl)cc(Cl)cc1C(=O)O`, the melting point is 180 to 182 °C.

Molecule `CNC(=O)c1ccn(-c2ccc(N)cc2)n1` yielded a melting point of 152 to 154 °C.

As to `COc1cc(I)c(Cl)cc1C(=O)O`, the melting point is 141 to 143 °C.

In turn, `CCOc1ncc(C(=O)O)cc1Cl` gave a melting point of 214 to 216 °C.

For `COC(=O)c1nc(Cl)ccc1Cl`, the melting point lay in the range of 53 to 55 °C.

The molecule `O=C(CCl)c1ccc(CC(=O)N2CCOCC2)s1` registered a melting point of 136 to 138 °C.

Molecule `CC(C)C(=O)Nc1cccc(O)c1` yielded a melting point of 179 to 181 °C.

With `NC(=O)C1CCN(Cc2cccc(N)c2)CC1`, the melting point is 139 to 141 °C.

Turning to `O=C(O)c1ccn(C2CCCC2)n1`, the melting point lay in the range of 108 to 110 °C.

Molecule `O=C(O)c1cc(S(=O)(=O)N2CCCCC2)ccc1N1CCCCC1` had a melting point of 143 to 145 °C.

Molecule `Nc1ccc(Oc2ccc(Cl)cc2)cc1C(=O)O` yielded a melting point of 177 to 179 °C.

In turn, `CC1CC(C)CC2(C1)NC(=O)NC2=O` (stereo not drawn) had a melting point of 299 to 301 °C.

`O=C(c1cccc(F)c1)c1ccccn1` had a melting point of 37 to 39 °C.

As to `CC(C)C(C(=O)O)c1ccc(F)cc1` (stereo not drawn), the melting point fell in the range of 59 to 61 °C.

`O=C(O)c1ccc(CSc2ccc(Cl)cc2)cc1` displayed a melting point of 182 to 184 °C.

Take `O=C(O)c1ccc(-c2ccc(Cl)cc2)s1`: the melting point lay in the range of 260 to 262 °C.

As for `CCN(CC)S(=O)(=O)c1ccc(Oc2cccc(C)c2)c(N)c1`, the melting point fell in the range of 122 to 124 °C.

Take `Clc1ccc(OC2CCCNC2)nc1` (stereo not drawn): the melting point lay in the range of 64 to 66 °C.

Regarding `O=C(O)c1cncc(OCC(F)F)c1`, the melting point is 166 to 168 °C.

The molecule `O=C1COc2ccc(Br)cc2N1CCCl` displayed a melting point of 117 to 119 °C.

For `Cc1ccn(-c2ccc(C(=O)O)cc2)n1`, the melting point lay in the range of 178 to 180 °C.

With `O=C(O)c1cc2ccccc2cc1NC(=O)C1CC1`, the melting point was in the range of 235 to 237 °C.

On to `Cc1csc(Nc2ccccc2)n1`, for which the melting point was 74 to 76 °C.

Take `Oc1cccc2ccc(N3CCCCC3)nc12`: the melting point was in the range of 69 to 71 °C.

For `O=C(O)Cc1ccc(S(=O)(=O)N2CCOCC2)s1`, the melting point was 116 to 118 °C.

For `COc1ccc(-c2ncc(C(=O)O)s2)cc1`, the melting point was 239 to 241 °C.

For `CC(C)c1nc(N)no1`, the melting point is 39 to 41 °C.

Consider `COc1cccc2c1OCCC2=O`, for which the melting point was 80 to 82 °C.

Regarding `Cc1c(C(=O)O)cnn1CCC#N`, the melting point lay in the range of 159 to 161 °C.

The molecule `Sc1nncn1CCc1ccccn1` displayed a melting point of 204 to 206 °C.

In turn, `Nc1c(C(=O)O)ccnc1Cl` displayed a melting point of 249 to 251 °C.

The molecule `c1ccc(COc2ccc3ncccc3c2)cc1` showed a melting point of 73 to 75 °C.

On to `O=C(O)c1nc(-n2cnc3ccccc32)ccc1Cl`, for which the melting point lay within 192 to 194 °C.

`NC(=O)N1CCC(C(=O)O)CC1` yielded a melting point of 193 to 195 °C.

As for `Nc1nc(C=Cc2ccccc2)cs1`, the melting point lay in the range of 147 to 149 °C.

Molecule `Cc1nn(-c2ccc(F)cc2)c2sc(C(=O)O)cc12` had a melting point of 205 to 210 °C.

Turning to `COc1cccc(CNc2ccc(F)cc2)c1O`, the melting point lay in the range of 76 to 78 °C.

In turn, `COc1ccc(-c2cc(C(=O)O)sc2C)cc1` yielded a melting point of 186 to 188 °C.

Regarding `NC(=S)NC1CCCCCC1`, the melting point lay in the range of 89 to 91 °C.

Take `NC(=O)N1CCCC(C(=O)O)C1` (stereo not drawn): the melting point lay in the range of 181 to 185 °C.

Molecule `O=C(O)Cc1c[nH]c2ncccc12` came in with a melting point of 215 to 217 °C.

Regarding `NCCc1ccc(OCC(N)=O)cc1`, the melting point is 96 to 98 °C.

As for `Cc1cccc(OC(C)C(=O)O)c1C` (stereo not drawn), the melting point lay in the range of 123 to 125 °C.

`Cc1ccc(C(F)(F)C(=O)O)cc1` showed a melting point of 39 to 41 °C.

In turn, `CN(C)c1nccc(Cl)n1` came in with a melting point of 79 to 81 °C.

The molecule `CS(=O)(=O)c1cccc(C(N)=O)c1` had a melting point of 177 to 179 °C.

As to `O=C(O)c1cc(Cl)ccc1I`, the melting point is 162 to 164 °C.

In the case of `Nc1cc(C(F)(F)F)cc2c1OCC(=O)N2`, the melting point was 199 to 201 °C.

As for `O=C(O)Cc1ccc(S(=O)(=O)Cl)s1`, the melting point lay within 85 to 87 °C.

Regarding `Nc1ccccc1CSc1ccc(C(F)(F)F)cn1`, the melting point was in the range of 74 to 76 °C.

In turn, `CC(N)CCc1ccc(O)cc1` (stereo not drawn) yielded a melting point of 111 to 113 °C.

As to `N#Cc1c[nH]c(C(=O)C(Cl)(Cl)Cl)c1`, the melting point fell in the range of 134 to 136 °C.

`CC(C)N(C)S(=O)(=O)c1ccc(Cl)c(C(=O)O)c1` showed a melting point of 154 to 156 °C.

For the molecule `O=C(O)c1cc2sc3ccccc3c2s1`, the melting point is 249 to 251 °C.

On to `Cc1[nH]n(-c2ccc(C#N)cc2)c(=N)c1C`, for which the melting point was 180 to 182 °C.

Consider `Cc1cc(Cl)cc2nc(Cl)oc12`, for which the melting point was in the range of 59 to 61 °C.

On to `CS(=O)(=O)c1cccc(C(=O)c2ccccc2)c1`, for which the melting point is 86 to 88 °C.

`O=C(O)CSCc1cscn1` yielded a melting point of 98 to 100 °C.

As to `O=C1CC(c2cccnc2)CN1` (stereo not drawn), the melting point was 69 to 71 °C.

`NC(=O)c1cccnc1NC1CCN(Cc2ccccc2)CC1` returned a melting point of 73 to 75 °C.

Molecule `NC1(c2nnn[nH]2)CCC1` registered a melting point of 254 to 256 °C.

Molecule `O=C(Nc1ccc(Br)cn1)C1CCNCC1` gave a melting point of 144 to 146 °C.

`O=C(NCCO)c1ccncc1` yielded a melting point of 136 to 138 °C.

For `CC(O)(c1ccc(O)cc1)C(F)(F)F` (stereo not drawn), the melting point lay in the range of 118 to 120 °C.

With `O=C(c1cc(Cl)ccc1[N+](=O)[O-])N1CCCC1`, the melting point fell in the range of 157 to 159 °C.

In the case of `O=C(O)CCC1NC(=O)NC1=O` (stereo not drawn), the melting point lay in the range of 169 to 171 °C.

`Nc1c(F)cccc1S(N)(=O)=O` yielded a melting point of 136 to 138 °C.

`N#Cc1ccc(CSc2ccccc2C(=O)O)cc1`: the melting point lay within 208 to 210 °C.

Turning to `O=C1Nc2cccc(Br)c2C1=O`, the melting point lay in the range of 229 to 231 °C.

For `Sc1nc(-c2cccs2)no1`, the melting point was in the range of 108 to 110 °C.

For `Cc1noc(C)c1COc1ccc(C(=O)O)cc1`, the melting point fell in the range of 224 to 226 °C.

Molecule `CN(CC(=O)NC(C)(C)C)CC(N)=S` yielded a melting point of 123 to 125 °C.

`Cc1ccc(S(=O)(=O)Cl)c([N+](=O)[O-])c1` gave a melting point of 97 to 99 °C.

The molecule `Cc1ccc(S(=O)(=O)NCCN)s1` returned a melting point of 94 to 96 °C.

`CC(C)Oc1c(F)cc(N)cc1F` yielded a melting point of 60 to 62 °C.

Turning to `CC(=O)CC(=O)Nc1ccccc1F`, the melting point was in the range of 75 to 77 °C.

For the molecule `Cn1cnc([N+](=O)[O-])c1S(=O)(=O)Cl`, the melting point was 100 to 102 °C.

`CS(=O)(=O)Cc1ccc(C(=O)O)cc1` gave a melting point of 253 to 255 °C.

`CC(C)(C)c1ccc(CC(C#N)C(N)=O)cc1` (stereo not drawn): the melting point is 143 to 145 °C.

Molecule `O=C(O)C=Cc1cc[nH]c1` had a melting point of 183 to 185 °C.

For `Cc1nn(Cc2ccccc2)c(C)c1C=O`, the melting point lay within 72 to 74 °C.

Turning to `Cc1ccc(F)c2c1C(=O)C(=O)N2`, the melting point lay in the range of 204 to 206 °C.

The molecule `Cn1ccc(S(=O)(=O)N2CCNCC2)c1` displayed a melting point of 129 to 131 °C.

In the case of `CCc1nc(N)nc(SC)n1`, the melting point is 143 to 145 °C.

On to `CC(=O)CC(=O)Nc1cccc(Cl)c1`, for which the melting point was in the range of 105 to 107 °C.

On to `CCOC(=O)c1cnn2cc(Br)cnc12`, for which the melting point lay within 141 to 143 °C.

For the molecule `CC1CN(Cc2ccccc2N)CC(C)O1` (stereo not drawn), the melting point is 93 to 95 °C.

With `O=[N+]([O-])c1ccc(O)cc1Cl`, the melting point lay within 115 to 117 °C.

Molecule `O=C(O)C1CC2(CCCC2)C1` came in with a melting point of 29 to 31 °C.

`Cn1cc(C(N)C(=O)O)cn1` (stereo not drawn) yielded a melting point of 245 to 247 °C.

`O=c1oc2ccccc2n1CCO` gave a melting point of 104 to 106 °C.

`C=CCNS(=O)(=O)C(C)(C)C` showed a melting point of 53 to 55 °C.

In the case of `COC(=O)c1cccc(CS(=O)(=O)Cl)c1`, the melting point was in the range of 102 to 104 °C.

The values above are taken from a melting point compilation (Tetko et al.).
